Results on one substance are retold here after publication PMC4405350, “From Broad-Spectrum Biocides to Quorum Sensing Disruptors and Mussel Repellents: Antifouling Profile of Alkyl Triphenylphosphonium Salts” (PLoS ONE, 2015).

What all share (assay type): cell-based
The test system of test [1] is Cellulophaga lytica CECT 5014. Kind of test: Marine bacteria growth inhibition (broth microdilution, OD625). As to conditions: growth inhibition, 24 h, 30 °C, three replicates; read-out: IC50 C. lytica. On the procedure: (§1) All the biological assays were run by triplicate. […] For the active products, serial dilutions were performed to calculate the half-maximal inhibitory concentrations (IC50) or the minimal inhibitory concentrations (MIC). Unless otherwise stated, the test concentrations were 100, 50, 25, 10, 5, 2.5, 1, 0.5 and 0.1 μM. Dose-response curves were adjusted with GraphPad Prism 5 software using a four-parameter non-linear regression model.
(§2) Growth inhibition was assessed in Marine Broth (Conda) according to CLSI guidelines for broth microdilution susceptibility testing. The incubation time was 24 h and the incubation temperature was 30 °C.
(In general: Broth dilution looks for growth in wells or tubes with falling amounts of substance.)

For a further test, the system named is Cobetia marina CECT 4278. The description is as above. As to conditions: growth inhibition, 24 h, 30 °C, three replicates; read-out: IC50 C. marina. On the procedure: as §1, §2
Test [2] has as its system Pseudoalteromonas atlantica CECT 579. The description is as above. As to conditions: growth inhibition, 24 h, 30 °C, three replicates; read-out: IC50 P. atlantica. On the procedure: as §1, §2
For test [3], the system named is Shewanella algae CECT 5021. The description is as above. As to conditions: growth inhibition, 24 h, 30 °C, three replicates; read-out: IC50 S. algae. On the procedure: as §1, §2
For test [4], the system named is Vibrio alginolyticus CECT 521. The test is described as above. As to conditions: growth inhibition, 24 h, 30 °C, three replicates; read-out: IC50 V. alginolyticus. As to the method:
as §1, §2

Test [5] deals with Vibrio anguillarum CECT 4347. Described as above. As to conditions: growth inhibition, 24 h, 30 °C, three replicates; read-out: IC50 V. anguillarum. On the procedure: as §1, §2
The next test deals with Alternaria sp. Nature of the test: Marine-derived fungi growth inhibition (OD405). Conditions: growth inhibition, 5 days, 26 °C; read-out: IC50 Alternaria sp. As to the method:
as §1
(§3) Three strains of marine-derived fungi were kindly provided by Dr. Á. Trigos (University of Veracruz, Mexico). The strains were isolated from reef organisms collected from the Veracruz Reef System and identified as Aspergillus sp., Fusarium sp. and Alternaria sp..
(§4) Fungal strains were cultured in Potato-Dextrose Agar (PDA) supplemented with filtered seawater (FSW) (50% v/v) at 26 °C for 5 days prior to experiments. […] Briefly, fungal inocula were prepared by addition of 5 ml of sterile saline solution to the cultures. Gently swabbing released conidia. […] The plates were incubated for 5 days at 26 °C. The calculation of the half-maximal inhibitory concentrations (IC50) was performed using OD405 as endpoint.

The next test relates to Aspergillus sp. Kind of test: Marine-derived fungi growth inhibition (OD405). As to conditions: growth inhibition, 5 days, 26 °C; read-out: IC50 Aspergillus sp. As to the method: as §1, §3, §4
The next test concerns Fusarium sp. Nature of the test: Marine-derived fungi growth inhibition (OD405). As to conditions: 5 days, 26 °C. As to the method:
All the biological assays were run by triplicate.
as §3, §4

The test system of the next test is Amphora sp. Kind of test: Benthic diatom growth inhibition (chlorophyll-a). Conditions: growth, 5 days, chlorophyll-a; read-out: IC50 Amphora sp. As to the method: as §1
(§5) Five strains of benthic diatoms, Nitszchia sp. […] The Nitzschia and Navicula strains were purchased from the Spanish Bank of Algae (Marine Biotechnology Center, University of Las Palmas de Gran Canaria). The other three strains were kindly provided by Dr. G. Courtois (University of Las Palmas de Gran Canaria). Diatoms were cultured at 19±1 °C in Erlenmeyer flaks (250 ml) containing 150 ml of Guillard’s F/2 medium, and subjected to a photoperiod of 18:6. Tests were run in 48-well plates. Inocula were prepared by adjusting diatom concentration to 2–4 × 10^6 cells ml^-1 using a Neubauer chamber. Test products were dissolved in F/2 medium (500 μl) to which diatom inocula (500 μl) were added. Thus, the final assay volume was 1 ml and the starting cell densities were ca. 1–2 x 10^6 diatoms ml^-1. Plates were incubated under the abovementioned conditions for 5 days and then chlorophyll-a (Chla) was quantified.
(§6) In order to extract Chla, the content of each well was transferred to a microcentrifuge tube and centrifuged at 10,000 rpm for 10 min. The supernatants were discarded and 200 μl of DMSO were added to the pellets. The tubes were incubated at 65 °C for 2 h in total darkness and vortexed every 30 min. Then, the content of each tube was transferred to a 96-well plate and the amount of Chla was determined spectrophotometrically. Path length correction factor for the DMSO extracts was determined.

In a further test the test system is Cylindrotheca sp. Kind of test: Benthic diatom growth inhibition (chlorophyll-a). As to conditions: growth, 5 days, chlorophyll-a; read-out: IC50 Cylindrotheca sp. On the procedure: as §1, §5, §6
Test [6] has as its system Navicula cf. salinicola BEA 0055. Nature of the test: Benthic diatom growth inhibition (chlorophyll-a). Conditions: growth, 5 days, chlorophyll-a; read-out: IC50 Navicula cf. salinicola. On the procedure: as §1, §5, §6
The subject of the next test is Nitzschia sp. Kind of test: Benthic diatom growth inhibition (chlorophyll-a). Conditions: growth, 5 days, chlorophyll-a; read-out: IC50 Nitzschia sp. As to the method: as §1, §5, §6
Test [7] concerns Phaeodactylum tricornutum. Nature of the test: Benthic diatom growth inhibition (chlorophyll-a). As to conditions: growth, 5 days, chlorophyll-a; read-out: IC50 P. tricornutum. On the procedure:
as §1, §5, §6

Test [8] has as its system Gayralia oxysperma spores. Nature of the test: Macroalgal spore germination inhibition. Conditions: 6 days, 19±1 °C. As to the method:
as §1
To evaluate the effect of the phosphonium salts on the germination of macroalgal spores, Gayralia oxysperma (Kützing) K.L.Vinogradova was selected as model organism. G. oxysperma (Ulotrichales, Chlorophyta) is a cosmopolitan member of the Ulvophyceae. Unlike Ulva species, which produce biflagellate male and female gametes, as well as quadriflagellate spores, G. oxysperma only produces biflagellate spores. This is an advantage as bioassays can be conducted straightforwardly without the need to distinguish between gamete-producing and zoospore-producing plants. […] Fresh fertile fragments were selected and placed in Petri dishes. Spores were then released in Von Stosch Solution (VSS) by the osmotic method. Bioassays were conducted in flat-bottom 96-well plates as described by Chambers and co-workers, with slight modifications. Each well was filled with 50 μl of the appropriate dilution of the products in VSS to which 50 μl of spore inoculum (ca. 2 x 10^5 spores ml^-1) were added. Plates were incubated at 19±1 °C for 6 days. After the incubation time, the bottom of each well was examined for the presence of germinated spores with an inverted microscope. A spore was considered as germinated when the germ tube was visible. The MIC was recorded as the lowest concentration inhibiting spore germination.

For orientation: IC50 means the concentration that inhibits the measured activity by half.

Regarding “bis-(tris-n-butyltin)oxide [TBTO, reference compound]”, the half-inhibitory concentration (IC50) was found to be 0.5 µM in test [1]; 34.2 µM in the test on Cobetia marina CECT 4278; 46.6 µM in test [2]; 6.4 µM in [3]; 38.6 µM in test [4]; 27.5 µM in test [5]. For the same substance, the IC50 with Alternaria sp. is 0.6 µM; in the test with Aspergillus sp., 3 µM; in the test with Fusarium sp. it was 6.7 µM; in the test on Amphora sp., 5.7 µM; in the test on Cylindrotheca sp. it was 0.4 µM; in [6], 6.3 µM. Further, the half-inhibitory concentration (IC50) in the test with Nitzschia sp. came out at 2.8 µM; in test [7], 1.7 µM. Besides, the “MIC G. oxysperma (lowest concentration inhibiting spore germination)” value in test [8] is 5 µM.
